Entries after “also recorded” stand apart in the source; their conditions may differ.
Columns and labels:
Format in all cases: cell-based
[1] = system: Panc-1; assay: MTT cell viability assay
Description: 1.1. ZPP and Y29794 induces cytotoxicity to cancer cells by MTT analysis of cell viability. Cells were placed in 96-well plates (3×10^3 cells/well) in octuplicate. The cells were then treated with vehicle or different doses of ZPP for 4 days. Cells were then loaded with 1.2 mM MTT (4,5-Dimethylthiazol-2-vn-2,5-diphenvltetrazolium bromide, a yellow tetrazole) in phenol red-free medium for 4 hours. The cells were then lysed in 10% SDS/0.01M HCL. MTT absorbance (570 nm spectrum) was measured by a microplate reader. The relative absorbance is normalized to the control (vehicle-treated) to indicate relative cell viability. ZPP was purchased from Biomol (Plymouth Meeting, Pa., USA). MTT was purchased from Sigma-Aldrich. Panc-1 and Capan-1 pancreatic cancer cell line, MCF7 and T47D breast cancer cell lines, A549 and HI 703 lung cancer Cell lines were purchased from American Type Culture Collection (ATCC, USA) preparation of pancreatic cancer cell line PK-9 have been disclosed, e.g., Kobari M et al, (1986) Tohoku J Exp Med. 150: 231-248; Etoh T et al, (2003) Clin Cancer Res 9; 1218; Arafat H. et al, (2011) Surgery 150 (2): 306-315. Cells were grown in Dulbecco's Modified. Eagle's (DMEM) medium (Invitrogen, Carlsbad, Calif.) containing 10% fetal bovine serum (FBS) (Hyclone, purchased from Thermo Fisher Scientific, Inc). […] […] Y29794 oxalate was purchased from Tocris Biosciences (Bristol, UK).

[2] = system: Panc-1; assay: Colony formation assay (clonogenic assay)
Description: 1.2. Colony formation assay (clonogenic assay) was used to analyze the effect of ZPP or Y29794 on cancer cell survival. 10^3 Panc-1 cells were plated in 100 mm petri dish in triplicate fed with 10 ml of DMEM containing 10% FBS. The cells were then treated by ZPP for 7 days and cultured for additional three weeks. Cells were then rinsed three times with PBS, fixed with 100% ethanol for 15 min, and stained with 2% crystal violet ethanol solution. The stained colonies were counted. All the results are statistically analyzed by one way ANOVA and two tailed t-test.

[3] = system: IRS-1; assay: Immunoblot analysis of IRS-1 (protein, phosphorylation, half-life, p85 coimmunoprecipitation); details: for rapamycin-induced increase in IRS-1: rapamycin 10 nM plus ZPP 200 μM or Y29794 0.5 μM, 24 hours
Description: 2.2 Immunoblot analysis of gene silencing of PRCP or PREP in cancer cells. Mouse anti-PRCP antibody was purchased from Abcam (Cambridge, Mass., USA). Goat anti-PREP antibody was purchased from R&D Systems (Minneapolis, Minn., USA). Mouse anti-R-actin antibody antibodies was from Santa Cruz Biotechnology (Santa Cruz, Calif., USA). Panc-1 pancreatic cancer cells and MCF7 breast cancer cells were cultured to 80% confluence, cells were rinsed three times with pre-cooled PBS, 500 μl of lysis buffer (150 mmol/L Nacl, 1% Triton-x-100, 50 mmol/l TrispH8.0, 1 mmol/L PMSF, 1 ug/L aprotinin, 1 ug/L leupeptin, 1 ug/L peptain) was added to the cells. Cells were scraped and transferred to a centrifuge tube with a pipette. The lysates were spun in a microcentrifuge at maximal speed for 10 minutes at 4° C. to get rid of the insoluble fraction. Protein concentration was determined by Bradford assay. For immunoprecipitation: 2-5 ug protein-specific antibodies were added to 250-500 ug of lysates in a tube and incubated on an ordital shaker 4° C. for 2-4 hours with moderate shaking, then 20 ul Protein G beads (Santa Cruz Biotechnology (Santa Cruz, Calif., USA.) were added and the mixture was incubated with moderate shaking for another hour. After washing the beads in lysis buffer five times, the immunoprecipitates were boiled in 2× Laemmli sample buffer (50 mmoL/L Tris-HCL (pH8.0), 100 mmoL/L DTT, 2% SDS, 0.1% bromophenol blue, 10% glycerol) for five minutes. The proteins were separated by conventional SDS-polyacrylamide gel electrophoresis (SDS-PAGE) electrophoresis and transferred to Amersham Hybond-P PVDF membrane (GE Company, Pittsburgh, Pa., USA). For immunoblot, the membrane was blocked in 2% BSA in TBST buffer (Tris 1.21 g+NaCl 5.84 g+800 ml H2O adjusted to pH 8.0 with HCl) for one hour and then incubated with primary antibodies in TBST at room temperature (22-25° C.) for 2 hours. After washing three times with TBST, the membrane was incubated with HRP-conjugated secondary antibodies for 0.5 hours at room temperature. After washing the membrane five times with TBST (5 minutes/each), the membrane was incubated with ECL chromogenic reagent (GE Company, Pittsburgh, Pa., USA) for 1-5 minutes. The blots were exposed to films in darkroom for 1-5 minute. The films were developed in an automatic X-OMAT Developer (KODAK, Rochester, N.Y., USA). […] PREP gene silencing (PREP KD) or PRCP gene silencing (PRCP KD) or gene silencing both PRCP and PREP (DKD) in MCF7 cells reduces expression of PREP and/or PRCP proteins compared with control cells (control) (FIGS. 6B & 6C).
3.2 AKT phosphorylation was examined by immunoblot as described in 3.1. IRS-1 expression was analyzed by immunoblot using anti-IRS-1 antibodies purchased from Santa Cruz Biotechnology (Santa Cruz, Calif., USA). Reduction in PRCP and/or PREP by gene silencing is shown by Western blot and quantitative PCR described in 2.2.
3.4 ZPP or Y29794 inhibits IRS-1 tyrosine phosphorylation and p85 PI3K subunit interaction with IRS-1 and PI3K kinase activity. Panc-1 cells were treated with ZPP (200 μM) or Y29794 (0.5 μM) for 24 hours. Lysates were immunoprecipitated with anti-IRS-1 antibodies and the anti-IRS-1 immunoprecipitates were used for PI3K kinase assay and anti-IRS-1 phospho-tyrosine and anti-p85 immunoblot analysis (FIG. 13). ZPP or Y29794 decreased IRS-1-associated PI3K activity (FIG. 13, upper) and tyrosine phosphorylation of IRS-1 and p85 (FIG. 13, lower).
As described in Example 2.2 and above, the cells with PRCP and PREP gene silencing were used for analysis of PRCP and PREP gene silencing and inhibition of serine phosphorylation and degradation of IRS-1 and its effects on response to rapamycin. […] Compared to control cells, DKD cells show […] serine phosphorylation (S307 and S636/639) of IRS-1 alongside with decreased tyrosine phosphorylation of IRS-1 (FIG. 18B). […]

[4] = Panc-1, 24 hours, ZPP 200 μM or Y29794 0.5 μM

CC(C)c1ccc(C(=O)c2cccs2)c(SCCCCCCCCN(C)C)n1 [Y29794, [2-[8-(dimethylamino)octylsulfanyl]-6-propan-2-ylpyridin-3-yl]-thiophen-2-ylmethanone]
MTT absorbance (relative cell viability) ([1]; Panc-1, different doses, 4 days): dose-dependent cytotoxicity
cell viability (MTT), combination ([1]; Panc-1, various concentration of Y29794 with 0.5 nM rapamycin, three days (FIG. 16A legend)): synergistic reduction
cell viability (MTT), combination ([1]; Panc-1, various concentration of rapamycin with 25 nM Y29794, three days (FIG. 16B legend)): synergistic reduction
cell survival (colony formation) ([2]; Panc-1, Y29794 25 nM in combination with rapamycin): significantly (P<0.01) decreased
cell colonies formed at 21 days, combination ([2]; Panc-1, various concentration of rapamycin with 25 nM Y29794, 7 days (FIG. 16C legend)): synergistic reduction
rapamycin-induced increase in IRS-1 ([3]; MCF7): blocked
p85 coimmunoprecipitated with IRS-1 [3, 4]: reduces; also recorded: decreased
tyrosine phosphorylation of IRS-1 in anti-IRS-1 immunoprecipitates [3, 4]: reduces; also recorded: decreased
IRS-1 protein ([3]; Panc-1, Y29794 1 μM (FIG. 19A, 19B)): reduces; also recorded: significantly reduced
serine phosphorylation (S307 and S636/639) of IRS-1 ([3]; Panc-1, Y29794 1 μM (FIG. 19B)): induces; also recorded: increased
rapamycin-induced increase in IRS-1 protein ([3]; Panc-1, Y29794 1 μM with rapamycin (FIG. 19D)): inhibits; also recorded: not increased nor stabilized
rapamycin-induced increase in IRS-1 ([3]; Panc-1): blocked
